Data from PubChem BioAssay (NCI).
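All cell lines were grown in 96-well plates and treated with compound for 48 hours. TGI marks complete inhibition of growth.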

How the values were obtained:
Test in all cases: DTP human tumour cell line panel, 48 h
MCF7 breast = tested on: MCF7 breast
MDA-MB-231 breast = tested on: MDA-MB-231 breast
OVCAR-4 ovarian = tested on: OVCAR-4 ovarian
T-47D breast = tested on: T-47D breast
EKVX NSCLC = tested on: EKVX NSCLC
SW-620 colon = tested on: SW-620 colon
SK-OV-3 ovarian = tested on: SK-OV-3 ovarian
SN12C renal = tested on: SN12C renal
HT29 colon = tested on: HT29 colon
UACC-257 melanoma = tested on: UACC-257 melanoma
A549 NSCLC = tested on: A549 NSCLC
SK-MEL-5 melanoma = tested on: SK-MEL-5 melanoma
ACHN renal = tested on: ACHN renal
KM12 colon = tested on: KM12 colon
HS 578T breast = tested on: HS 578T breast
CAKI-1 renal = tested on: CAKI-1 renal
NCI/ADR-RES ovarian = tested on: NCI/ADR-RES ovarian
NCI-H460 lung = tested on: NCI-H460 lung
MOLT-4 leukemia = tested on: MOLT-4 leukemia
M14 melanoma = tested on: M14 melanoma
RPMI-8226 leukemia = tested on: RPMI-8226 leukemia
SF-268 CNS = tested on: SF-268 CNS
NCI-H23 lung = tested on: NCI-H23 lung
SK-MEL-28 melanoma = tested on: SK-MEL-28 melanoma
HCT-116 colon = tested on: HCT-116 colon
IGROV1 ovarian = tested on: IGROV1 ovarian
SF-539 CNS = tested on: SF-539 CNS
COLO 205 colon = tested on: COLO 205 colon
DU-145 prostate = tested on: DU-145 prostate
HL-60(TB) leukemia = tested on: HL-60(TB) leukemia
MDA-N = tested on: MDA-N
786-0 renal = tested on: 786-0 renal
TK-10 renal = tested on: TK-10 renal
SNB-75 CNS = tested on: SNB-75 CNS
HCT-15 colon = tested on: HCT-15 colon
SK-MEL-2 melanoma = tested on: SK-MEL-2 melanoma
SF-295 CNS = tested on: SF-295 CNS
NCI-H522 lung = tested on: NCI-H522 lung
UO-31 renal = tested on: UO-31 renal
HOP-92 NSCLC = tested on: HOP-92 NSCLC
UACC-62 melanoma = tested on: UACC-62 melanoma
PC-3 prostate = tested on: PC-3 prostate
MDA-MB-435 = tested on: MDA-MB-435
MALME-3M melanoma = tested on: MALME-3M melanoma
CCRF-CEM leukemia = tested on: CCRF-CEM leukemia
U251 CNS = tested on: U251 CNS
SNB-19 CNS = tested on: SNB-19 CNS
LOX IMVI melanoma = tested on: LOX IMVI melanoma
NCI-H226 lung = tested on: NCI-H226 lung
BT-549 breast = tested on: BT-549 breast
OVCAR-3 ovarian = tested on: OVCAR-3 ovarian
OVCAR-5 ovarian = tested on: OVCAR-5 ovarian
K-562 leukemia = tested on: K-562 leukemia
HCC-2998 colon = tested on: HCC-2998 colon
OVCAR-8 ovarian = tested on: OVCAR-8 ovarian
A498 renal = tested on: A498 renal
HOP-62 NSCLC = tested on: HOP-62 NSCLC
RXF 393 renal = tested on: RXF 393 renal

C=C1C(=O)C23CC1CCC2C12CO[C@H](O)[C@H]1C(C)(C)[C@H](OC(C)=O)C[C@H]2OC3=O (some centres undefined)
TGI (MCF7 breast): 32.4 µM
TGI (MDA-MB-231 breast): 37.2 µM
TGI (OVCAR-4 ovarian): > 100 µM
TGI (T-47D breast): 40.5 µM
TGI (EKVX NSCLC): 29.1 µM
TGI (SW-620 colon): 30.5 µM
TGI (SK-OV-3 ovarian): > 100 µM
TGI (SN12C renal): 46.2 µM
TGI (HT29 colon): 27.1 µM
TGI (UACC-257 melanoma): > 100 µM
TGI (A549 NSCLC): > 100 µM
TGI (SK-MEL-5 melanoma): 77.1 µM
TGI (ACHN renal): 29.6 µM
TGI (KM12 colon): > 100 µM
TGI (HS 578T breast): > 100 µM
TGI (CAKI-1 renal): 28.8 µM
TGI (NCI/ADR-RES ovarian): > 100 µM
TGI (NCI-H460 lung): > 100 µM
TGI (MOLT-4 leukemia): 82.2 µM
TGI (M14 melanoma): 53.2 µM
TGI (RPMI-8226 leukemia): > 100 µM
TGI (SF-268 CNS): 34.2 µM
TGI (NCI-H23 lung): > 100 µM
TGI (SK-MEL-28 melanoma): 33.2 µM
TGI (HCT-116 colon): 28 µM
TGI (IGROV1 ovarian): > 100 µM
TGI (SF-539 CNS): 41.7 µM
TGI (COLO 205 colon): 28.8 µM
TGI (DU-145 prostate): 83.3 µM
TGI (HL-60(TB) leukemia): 87.9 µM
TGI (MDA-N): 30.6 µM
TGI (786-0 renal): 29.9 µM
TGI (TK-10 renal): 28.5 µM
TGI (SNB-75 CNS): > 100 µM
TGI (HCT-15 colon): 28.8 µM
TGI (SK-MEL-2 melanoma): 31.1 µM
TGI (SF-295 CNS): > 100 µM
TGI (NCI-H522 lung): 3.63 µM
TGI (UO-31 renal): 67.7 µM
TGI (HOP-92 NSCLC): 22.2 µM
TGI (UACC-62 melanoma): 28.9 µM
TGI (PC-3 prostate): > 100 µM
TGI (MDA-MB-435): 44.8 µM
TGI (MALME-3M melanoma): 28.1 µM
TGI (CCRF-CEM leukemia): > 100 µM
TGI (U251 CNS): > 100 µM
TGI (SNB-19 CNS): > 100 µM
TGI (LOX IMVI melanoma): 33.7 µM
TGI (NCI-H226 lung): > 100 µM
TGI (BT-549 breast): 21.9 µM
TGI (OVCAR-3 ovarian): 55.2 µM
TGI (OVCAR-5 ovarian): 33.3 µM
TGI (K-562 leukemia): > 100 µM
TGI (HCC-2998 colon): 54.2 µM
TGI (OVCAR-8 ovarian): > 100 µM

CCN(CC)CCn1ncc2c(N)ncnc21
TGI (MCF7 breast): > 100 µM
TGI (MDA-MB-231 breast): > 100 µM
TGI (OVCAR-4 ovarian): > 100 µM
TGI (T-47D breast): > 100 µM
TGI (EKVX NSCLC): > 100 µM
TGI (SW-620 colon): > 100 µM
TGI (SK-OV-3 ovarian): > 100 µM
TGI (SN12C renal): > 100 µM
TGI (HT29 colon): > 100 µM
TGI (A549 NSCLC): > 100 µM
TGI (SK-MEL-5 melanoma): > 100 µM
TGI (ACHN renal): > 100 µM
TGI (KM12 colon): > 100 µM
TGI (HS 578T breast): > 100 µM
TGI (CAKI-1 renal): > 100 µM
TGI (NCI/ADR-RES ovarian): > 100 µM
TGI (NCI-H460 lung): > 100 µM
TGI (MOLT-4 leukemia): > 100 µM
TGI (M14 melanoma): > 100 µM
TGI (RPMI-8226 leukemia): > 100 µM
TGI (SF-268 CNS): > 100 µM
TGI (NCI-H23 lung): > 100 µM
TGI (SK-MEL-28 melanoma): > 100 µM
TGI (HCT-116 colon): > 100 µM
TGI (IGROV1 ovarian): > 100 µM
TGI (COLO 205 colon): > 100 µM
TGI (DU-145 prostate): > 100 µM
TGI (MDA-N): > 100 µM
TGI (786-0 renal): > 100 µM
TGI (TK-10 renal): > 100 µM
TGI (HCT-15 colon): > 100 µM
TGI (A498 renal): > 100 µM
TGI (SK-MEL-2 melanoma): > 100 µM
TGI (SF-295 CNS): > 100 µM
TGI (HOP-62 NSCLC): > 100 µM
TGI (NCI-H522 lung): > 100 µM
TGI (UO-31 renal): > 100 µM
TGI (HOP-92 NSCLC): > 100 µM
TGI (UACC-62 melanoma): > 100 µM
TGI (PC-3 prostate): > 100 µM
TGI (MDA-MB-435): > 100 µM
TGI (MALME-3M melanoma): > 100 µM
TGI (CCRF-CEM leukemia): > 100 µM
TGI (U251 CNS): > 100 µM
TGI (SNB-19 CNS): > 100 µM
TGI (LOX IMVI melanoma): > 100 µM
TGI (NCI-H226 lung): > 100 µM
TGI (BT-549 breast): > 100 µM
TGI (RXF 393 renal): > 100 µM
TGI (OVCAR-3 ovarian): > 100 µM
TGI (OVCAR-5 ovarian): > 100 µM
TGI (K-562 leukemia): > 100 µM
TGI (HCC-2998 colon): > 100 µM
TGI (OVCAR-8 ovarian): > 100 µM
